Where “and” joins values, the source holds several entries; their conditions need not be identical. Equal entries are not always repeated. Calls of active or inactive are those of the source.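 The calls were made as follows: active = compounds giving half or more protection of infected cells from virus-caused growth loss, again on retest; inactive = the rest.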 Where a SMILES comes first, the peptide text is derived from it. The star is where a group is joined. Myristoyl = CCCCCCCCCCCCCC(=O)* Bounds are passed on as bounds.

In PubChem BioAssay AID179 (DTP/NCI, 2004) one finds EC50, IC50 and outcome data, which are given here for 71 compounds.

In this assay the test system is CEM cells HIV-1 protection, formazan growth assay. Kind of assay: NCI AIDS Antiviral Assay. The following applies: for IC50: measured here: growth of uninfected CEM cells. The method, boiled down: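 Soluble formazan readout of cell growth; CEM cells ± HIV-1; 5 drug concs. ≥50% protection → retest; ≥50% again = moderately active; reproducible 100% = confirmed active.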

A word on the EC50: it is the concentration needed to bring the measured effect to its halfway point. A word on the IC50: it is the concentration that inhibits the measured activity by half. A low value points to higher potency. Consider `COC(=O)C(=Cc1cc(OC)c(OC)c(OC)c1-c1cc2c(cc1C1(C)OCCS1)OCO2)C(=O)OC` (configuration not stated), for which the EC50 is above 18.6 µM and the IC50 is 15.5 µM.

With `CC(C)(C)C(O)CC(O)(C(F)(F)F)C(F)(F)F` (configuration not stated), the EC50 is above 200 µM and the IC50 was above 200 µM. For the compound `Cc1ccc(C(=O)n2nc(C)c(N=Nc3ccccc3)c2C)cc1`, the outcome was inactive. For the compound `COc1ccc2c(c1)CSCC2=O`, the EC50 was above 513 µM and the IC50 was above 200 µM.

Consider `Cc1ccc(S(=O)(=O)n2ccn3c(=O)cc(C)nc23)cc1`, for which the EC50 is above 200 µM and the IC50 was above 200 µM. `O=S1(=O)OC(c2cc(Br)c(O)c(Br)c2)(c2cc(Br)c(O)c(Br)c2)c2c(Br)c(Br)c(Br)c(Br)c21`: the outcome was inactive. With `S=c1[nH]n2c(CCCCCCCCc3nnc4sc(=S)[nH]n34)nnc2s1`, the EC50 is 123 µM and the IC50 is 178 µM. The matching figures for `OCCCCCCOc1ccc(-c2cc(-c3ccccn3)nc(-c3ccccn3)c2)cc1`: above 12.3 µM and 1.91 µM.

As to `NC1C2CC3CC(C2)CC1(N)C3` (configuration not stated), the outcome was inactive.

`CSC1=NS(=O)(=O)c2cc(C(=O)NN(C)C(=O)c3cc4c(cc3Cl)SC(SC)=NS4(=O)=O)c(Cl)cc2S1`: the EC50 is above 200 µM and the IC50 came out at 91.2 µM.

Take `CSC1(CC(=O)N2CCCCC2)C(=O)Nc2ccccc21` (configuration not stated): the EC50 is above 200 µM and the IC50 is above 200 µM. Turning to `O=C(c1ccco1)[N+]1=Cc2[nH]c3ccccc3c2CC1`, the EC50 was above 170 µM and the IC50 stood at 97.7 µM. For the compound `C1=C(c2ccccc2)CN(c2ccccc2)OC1`, the EC50 was above 57.5 µM and the IC50 was above 57.5 µM.

As for `COc1c2occc2c(N=Cc2ccccn2)c2ccc(=O)oc12`, the EC50 was above 39.8 µM and the IC50 is above 39.8 µM. Regarding `COc1cc2c(cc1OC)C13CC(=O)N(C(C)=O)N1CCCN3C2=O` (configuration not stated), the EC50 was above 145 µM and the IC50 was above 145 µM. As to `COc1cc2c3c(c1)CCCN3CCC2`, the EC50 was above 200 µM and the IC50 amounted to 13.2 µM. The matching figures for `COC1N(C2C=CC(CO)O2)C(=O)NC(=O)C1(C)Br` (configuration not stated): 100 µM and 129 µM. For `NCc1ccccc1C1CSCSC1`, the EC50 was above 575 µM and the IC50 was 288 µM.

In the case of `COc1ccc2cc3n(c2c1)CCc1cc(OC)c(OC)cc1-3`, the result was inactive. Turning to `CCN(CC)CCN1C(=O)c2cccc3cc(N)cc(c23)C1=O`, the EC50 is above 200 µM and the IC50 was determined as 8.13 µM. Turning to `O=S(CC1(O)CCCCC1)c1ccccc1` (configuration not stated), the result was inactive.

Consider `O=C(O)/C(=C\c1ccc(F)cc1)c1ccccc1`, for which the EC50 is above 537 µM and the IC50 was determined as 309 µM. Turning to `OC(CN(CCCl)CCCl)C(O)C(O)C(O)CN(CCCl)CCCl` (configuration not stated), the result was inactive. As to `NC(=O)C(=CNC(=S)Nc1ccc(S(N)(=O)=O)cc1)C(N)=O`, the EC50 was above 200 µM and the IC50 was above 200 µM. Turning to `CC(=O)OC1C(COC(=O)c2ccccc2)OC(Nc2ncc(-c3ccc(Br)cc3)s2)C(OC(=O)c2ccccc2)C1OC(=O)c1ccccc1` (configuration not stated), the EC50 was above 200 µM and the IC50 turned out to be 20.4 µM. In the case of `CCCCCC(Nc1nncs1)Nc1nncs1`, the EC50 is above 200 µM and the IC50 is above 200 µM. In the case of `COC1=CC(C)C2C[C@H]3O[C@H](O)C[C@H]4C(C)C(=O)C(O)C([C@@]2(C)C1=O)[C@@]34C` (some centres not stated), the result was inactive. Regarding `CCOC(=O)C12CC1(C(=O)OCC)C1CCC2C1` (configuration not stated), the EC50 is above 200 µM and the IC50 was above 200 µM. Consider `Cc1nc2c(=O)[nH]c3ccccc3c2o1`, for which the EC50 is above 200 µM and the IC50 is above 200 µM. On to `O=c1c2ccccc2nc(/C=C(\O)c2ccncc2)n1-c1ccc(Cl)cc1`, for which the EC50 was above 1.45 µM and the IC50 is above 1.45 µM. Consider `Cc1cc2c(C)cc3c(c2oc1=O)[C@@H](OC(=O)C12CCC(C)(C(=O)O1)C2(C)C)[C@@H](OC(=O)C12CCC(C)(C(=O)O1)C2(C)C)C(C)(C)O3` (some centres not stated), for which the EC50 is 0.692 µM and the IC50 worked out at 6.92 µM. `COC(=O)C1=C(O)C(O)=C(C(=O)OC)CC1`: the EC50 is 468 µM and the IC50 was determined as 912 µM. As to `COC(=O)N(C)C(C#N)CCc1ccccc1` (configuration not stated), the EC50 is above 15.5 µM and the IC50 is above 15.5 µM.

Turning to `CS(=O)(=O)ON1C(=O)c2ccc(N)cc2C1=O`, the EC50 was above 372 µM and the IC50 turned out to be 282 µM. In the case of `NC(c1ccccc1)P(=O)(OCc1ccc([N+](=O)[O-])cc1)OCc1ccc([N+](=O)[O-])cc1` (configuration not stated), the EC50 is above 87.1 µM and the IC50 was found to be 53.7 µM.

Regarding `Cc1c(O)cc2c(c1O)C(=O)CC(c1ccc(O)cc1)O2` (configuration not stated), the EC50 is above 200 µM and the IC50 turned out to be 93.3 µM. Taken in the same sequence, the figures for `C[N+](C)(C)CCCCCc1c2nc(c(CCCCC[N+](C)(C)C)c3ccc([nH]3)c(CCCCC[N+](C)(C)C)c3ccc([nH]3)c(CCCCC[N+](C)(C)C)c3nc1C=C3)C=C2` were above 100 µM and 57.5 µM. Taken in the same sequence, the figures for `CCN(CC)CC(=O)Nc1ccc(C(=O)OCC(C)C)cc1` were above 200 µM and 26.9 µM.

Regarding `N#C/C(N)=C(\C#N)N=CN`, the EC50 is above 200 µM and the IC50 was above 200 µM. Consider `CC(C)(C)C(=O)C(C(=O)c1ccccc1)C(=O)C(C)(C)C`, for which the EC50 was above 200 µM and the IC50 is above 200 µM.

On to `CCCCC[C@@H]1CC=CC(NC(=O)OCc2ccccc2)C1/C=C/C(=O)OCCCC1OCCO1` (some centres not stated), for which the result was inactive. On to `Cc1cc(=O)n2nc(CSc3n[nH]c(=S)s3)sc2n1`, for which the EC50 was above 200 µM and the IC50 is above 200 µM.

In the case of `Nc1ccc(OCC(O)N2C(=O)c3ccccc3C2=O)cc1` (configuration not stated), the EC50 was above 200 µM and the concentration for half-maximal inhibition (IC50) was above 200 µM. `COc1ccc(Cl)[c]([Bi]([c]2cc(OC)ccc2Cl)[c]2cc(OC)ccc2Cl)c1`: the EC50 was above 39.8 µM and the IC50 was above 39.8 µM. For the compound `CC1=C/C(=C2/N=C(N(C)C)SS2)C(C)=N1`, the result was inactive. On to `Cc1ccc(S(=O)(=O)OC2CSSCC2OS(=O)(=O)c2ccc(C)cc2)cc1` (configuration not stated), for which the result was inactive. The compound `CC12CP(=O)(c3ccccc3)CC1c1ccccc1C2c1ccccc1` (configuration not stated) gave an EC50 above 200 µM and an IC50 of 31.6 µM. The matching figures for `CC(=O)Nc1c(C(=O)O)[nH]c(=O)[nH]c1=O`: above 200 µM and above 200 µM. The matching figures for `COC(=O)c1cc(C(=CCCN)c2cc(Cl)c(OC)c(C(=O)OC)c2)cc(Cl)c1OC`: above 200 µM and 8.71 µM. The matching figures for `O=c1nc(-c2ccccc2)cc(CC(O)(c2ccc(C(F)(F)F)cc2)c2ccc(Cl)c(Cl)c2)[nH]1` (configuration not stated): above 20 µM and above 20 µM. Take `CCOC(=O)c1c2cccccc-2nc1Nc1ccccc1N1C=CC(C)C(C(=O)OC)=C1C(=O)OC` (configuration not stated): the EC50 is above 200 µM and the IC50 is 129 µM. Take `CCCCCCCCCCCCCC(=O)NCC(=O)NC(C)C(=O)NC(CCCNC(=N)N)C(=O)NC(C)C(=O)NC(CO)C(=O)NC(C(=O)NC(CC(C)C)C(=O)NC(CO)C(=O)NCC(=O)NCC(=O)NC(CCC(=O)O)C(=O)NC(CC(C)C)C(=O)NC(CC(=O)O)C(=O)NC(CCCNC(=N)N)C(=O)NC(Cc1c[nH]c2ccccc12)C(=O)NC(Cc1ccc(O)cc1)C(N)=O)C(C)C` (configuration not stated) (Myristoyl-GARASVLSGGELDRWY-NH2; configuration not given here): the EC50 was above 129 µM and the IC50 was above 129 µM. Consider `NC(=O)NN=C1CSSC1`, for which the EC50 was 18.6 µM and the IC50 was found to be 70.8 µM. `Cc1nc(N)c2cnn(C)c2n1`: the EC50 was above 1510 µM and the IC50 came to 708 µM. Regarding `Cc1nc(C)c(C(=O)Nc2cccc3c2C(=O)NC3=O)cc1C(=O)Nc1cccc2c1C(=O)NC2=O`, the EC50 is above 195 µM and the IC50 is above 195 µM. On to `COc1ccc(OCc2nc3ccccc3[nH]2)cc1`, for which the EC50 is above 200 µM and the IC50 was above 200 µM. For `CN(C)c1nc(=Nc2ccc3c(c2)OCO3)ss1`, the result was inactive.

Consider `CC(=O)Nc1cccc(N2C(=O)/C(=C\c3cccc(Oc4ccccc4)c3)S(=O)(=O)C2c2ccccc2)c1` (configuration not stated), for which the EC50 was above 200 µM and the IC50 worked out at 34.7 µM. `CC(=O)OCC1OC(Nc2ccc3nc(C)n(-c4cccc(C)c4)c(=O)c3c2)C(OC(C)=O)C(OC(C)=O)C1OC(C)=O` (configuration not stated): the EC50 is above 126 µM and the IC50 was above 126 µM. Turning to `O=C(Cc1nc2ccccc2o1)C(=O)Nc1cccc(C(F)(F)F)c1`, the outcome was inactive.

`Nc1ccccc1SSc1ccccc1N`: the EC50 was above 200 µM; the outcome was inactive; the IC50 was 25.1 µM and 5.37 µM. With `O=C(O)c1ccccc1C(=O)c1ccc(F)cc1`, the result was inactive. For `CC(C)C1N(N2C(=O)CS(=O)(=O)C2C(C)C)C(=O)CS1(=O)=O` (configuration not stated), the EC50 was above 200 µM and the IC50 was above 200 µM. In the case of `Cc1ccccc1C1SCc2nc3ccccc3n21` (configuration not stated), the outcome was inactive. `O=C(CCC(=O)CC(O)(C(F)(F)F)C(F)(F)F)CC(O)(C(F)(F)F)C(F)(F)F`: the EC50 is above 200 µM and the half-maximal inhibitory concentration (IC50) was determined as 47.9 µM.

Take `O=C(/C=C/c1ccsc1)c1ccc(Cl)cc1`: the EC50 is above 200 µM and the IC50 was 3.31 µM. As to `COc1cc2ccc1OCc1cccc(n1)COc1ccc(cc1OC)C=Nc1ccc(cc1)-c1ccc(cc1)N=C2`, the EC50 was above 200 µM and the concentration for half-maximal inhibition (IC50) was above 200 µM. Regarding `O=C(Nc1ccc(C2=NCCN2)c(O)c1)c1ccc(C(=O)Nc2ccc(C3=NCCN3)c(O)c2)cc1`, the EC50 is 95.5 µM and the IC50 is above 200 µM.

For the compound `N#CN=C(N)NC(=O)c1ccccc1`, the result was inactive. On to `O=C(CCCn1ccnc1[N+](=O)[O-])NCCn1cnc([N+](=O)[O-])n1`, for which the EC50 was above 200 µM and the IC50 is above 200 µM. As for `O=C(C=P(c1ccccc1)(c1ccccc1)c1ccccc1)CC(=S)CC(=O)C=P(c1ccccc1)(c1ccccc1)c1ccccc1`, the outcome was inactive.
